Laboratory results taken from patent US6605754B1, “DNA constructs and plants incorporating them” (priority 1992, dated 2003).

Legend:
[1] = system: ADHI expressed from the alcA gene; conditions: Creaser et al 1984 / shown previously; cited from earlier work
[2] = system: alcA:35S chimeric promoter (CAT reporter gene expression); assay: CAT expression from wild type A nidulans alcA-CAT transformants GA2-1 and GA2-5; format: cell-based, Aspergillus nidulans
Protocol: Conidial suspensions of A nidulans were grown in supplemented minimal medium containing 0.1% fructose as the carbon source, for 20 hours at 200 revs/min in an orbital incubator at 37° C. Inducing chemical was added to the mycelia at 20 hours and allowed to grow for a further 4 hours. The mycelia was harvested as before. Uninduced mycelia was allowed to grow for 24 hours in the medium described above.
300 mgs of mycelia, frozen in liquid nitrogen, was ground in a chilled pestle and mortar with an equal amount of acid washed sand for 20 seconds. 1 ml of extraction buffer, (0.1 M Tris pH 7.5), was added and the mycelia ground for a further 30 seconds. Another 1 ml of extraction buffer was added and the mycelia was ground again for 30 seconds. 1 ml of the ground mycelia mixture was transferred into eppendorfs and centrifuged at 13,000 revs/min for 5 minutes in a microcentrifuge. The supernatant was transferred to new eppendorfs and the protein concentration estimated using the Bradford's assay.
Stably transformed A nidulans was obtained by co-transforming a pyrG89 strain with the pDJB3 and palcA-CAT/pUC plasmids using the PEG method. Plasmid palcA-CAT/pUC contains the CAT reporter gene between the alcA:35S chimeric promoter and the nos transcription terminator. Two independent transformants (GA2-1 and GA2-5) were obtained which contained uninterrupted copies of the alcA-CAT construct. This was shown by probing genomic DNA, restricted with HindIII, with the 0.7 kb SalI fragment of the CAT gene.
The CAT activity of the alcA-CAT A nidulans transformants was measured when they were grown under a variety of conditions. FIG. 4 is a graph showing CAT expression from the GA2-1 and GA2-5 transformants (wild type with alcA-CAT construct) growing in 0.1% fructose (F) or 1% glucose (G) in the absence or presence of 50 mM ethyl methyl ketone as inducer (I). […] The induction of CAT was prevented when the transformants were grown in 1% glucose even in the presence of inducer indicating the carbon catabolyte repression function of the alcA promoter was retained.
FIG. 5 is a graph showing the effect of cyclohexanone concentration (mM) on CAT expression in the transformant GA2-1 growing in 0.1% fructose (F) or 1% glucose (G).

[3] = system: alc expression cassette 35S-alcR/alcA-CAT (CAT reporter gene expression); assay: CAT activity in leaves of stably transformed tobacco after leaf paint with inducer; format: in vivo
Protocol: Cyclohexanone was applied to the plant leaves as a paint. The cyclohexanone paint consisted of a 10% solution of 950 g/L cyclohexanone, 35 g/L syperonic NDE 1800, 16.5 g/L Tween 85 in thickener. Both surfaces of the leaf were applied with paint at 100 μl solution per 16-25 cm^2 of leaf surface, on days 0 and 2. Leaf tissue was harvested prior to inducer application and at appropriate times after the second application of paint. 1 cm^2 of leaf tissue was removed with a sterile scalpel, put in an eppendorf, and immersed in liquid nitrogen. CAT assays were undertaken within 4 hours of leaf sampling.
The leaf tissue was allowed to defrost at room temperature for several minutes after storage in liquid nitrogen. A sterile micropestle was used to grind the leaf tissue in the eppendorf for 30 seconds and then 100 μl of 100 mM Tris pH 7.8 was added. The plant mixture was then vortexed for 20 seconds and centrifuged at 13,000 revs/min for 5 minutes. The supernatant was transferred to a new eppendorf. 50 μl of leaf extract was used for a CAT assay and the rest was used to determine the protein concentration wit the Bradford's method.
CAT assays were undertaken according to the Dupont method as described in Example 4.
The data obtained from this analysis are shown in FIG. 9: at each time point, results are given in the order S34:D3:T1. Leaves were treated with cyclohexanone leaf paint on day 0 and day 2. Samples of leaf tissue were taken immediately prior to each treatment (0-0 and 2-0 in FIG. 9) and thereafter at seven intervals up until day 3. Protein extracts were made from the leaf samples and CAT activity determined in the samples using the diffusion assay described above.
The leaves of the plants were painted with a 10% iso-propanol solution at 0 and 60 minutes and the CAT expression of leaf samples was measured at 240 minutes. The CAT expression found in the alcA-CAT and alcA-CAT/35S-alcR transgenic plants at 0 minutes was low as it was in the control untransformed tobacco plants.

Structure (SMILES)	inducer strength for alcA / ADHI [1]	concentration of optimal inducing ability (concentration curve) ([2]; GA2-1 transformant) [mM]	induction of CAT expression ([2]; GA2-1 transformant)	effect on CAT activity [3]	CAT expression level after application to leaves ([3]; plant D3 (35S-alcR/alcA-CAT), cyclohexanone leaf paint)	time of peak CAT activity after the second inducing treatment ([3]; plant D3, leaf paint on day 0 and day 2) [min]	CAT activity as % of the maximum activity seen in the 35S-alcR/alcA-CAT leaves ([3]; plants T1 and S34 after cyclohexanone leaf paint)	increase in CAT activity ([3]; 10% solution painted at 0 and 60 minutes, measured at 240 minutes, alcA-CAT, alcA-CAT/35S-alcR and control plants)	effect on the alc expression cassette ([3]; tobacco plants)	CAT activity of the alcA-CAT reporter construct ([2]; GA2-1 and GA2-5, 0.1% fructose, 50 mM inducer)	induction of CAT ([2]; GA2-1 and GA2-5, 1% glucose, 50 mM inducer)
O=C1CCCCC1 [cyclohexanone]	potent inducer	25	found to induce CAT expression	no effect	high CAT expression level	160	5-20%	–	–	–	–
CC(C)O [iso-propanol, propan-2-ol]	weak inducer	–	–	–	–	–	–	no significant increase	no apparent effect	–	–
CCC(C)=O [EMK, butan-2-one (ethyl methyl ketone)]	–	–	–	–	–	–	–	–	–	high	prevented
